Reference: US20170260121A1, “COMPOUND, PROCESS FOR PREPARING A COMPOUND, PHARMACEUTICAL COMPOSITION, USE OF A COMPOUND AND METHOD FOR TREATING CANCER” (FUNDAÇÃO OSWALDO CRUZ, priority 2014, published 2017)

How the values were obtained:
K562 (leukemia) cells = assay: anti-proliferative assay (MTT, 48 h); format: cell-based, human; details: K562, 0.01 to 100 μM
Method: (§1) Example 6 was carried out to determine the biological activity of the following samples: (S)-perillyl alcohol, (S)-AP, (R)-AP, (S)-NAP, and (R)-NAP on human tumor lineages. (S)-perillyl alcohol was tested in combination with the samples of sodium acids and salts, because it is a substance which is considered to have some established clinical efficacy.
(§2) Samples (R)-AP, (S)-AP, (R)-NAP, (S)-NAP and perillyl alcohol (POH) were received and solubilized in DMSO or saline solution (NaCl 0.9%) and conserved at −20° C. until the day of the experiment, when they were immediately diluted before use, in a cell culture medium, DMEM, enriched with 10% fetal bovine serum, […] penicillin, and 0.1 mg/ml streptomycin, and 0.05 mg/ml gentamicin (DMEM complete medium). The experiments were carried out according to the Standard Operational Procedure of the Laboratory of Molecular Pharmacology FARMO1003 version 00, which are summarized below.
(§3) K562 (leukemia), LUCENA (multi-drug resistant leukemia), SKMEL28 (melanoma) and MCF7 (breast tumor) cells were cultivated on a DEM complete culture medium, and kept in log growth phase. Twenty-four hours before the treatment with the samples, 100 μl of the cell suspension (5×10^4 cells/ml) were added to wells of 96-well plates and kept in the oven at 5% CO2 atmosphere, at 37° C.
(§4) The treatment for each of the five samples was carried out in response dosage (0.01 to 100 μM; 5 spots), each concentration in triplicate.
(§5) After 48 hours, thiazolyl blue was added (MTT; SIGMA code M5655) and the plate was kept in the oven with CO2 for 4 hours. After the incubation time, the supernatant was aspirated and formazan crystals, formed by the cellular activity, were solubilized with isopropyl alcohol and, after full solubilization, the optical density determination was carried out in a microplate reader at 570 nm (VictorX5; Perkin Elmer USA).

SKMEL28 (melanoma) cells = assay: anti-proliferative assay (MTT, 48 h); format: cell-based, human; details: SKMEL, 0.01 to 100 μM
Method: as §1, §2, §3, §4, §5

[1] = tested on: Lucena (multi-drug resistant leukemia) cells; assay: anti-proliferative assay (MTT, 48 h); format: cell-based, human; details: 0.01 to 100 μM
Method: as §1, §2, §3, §4, §5

[2] = tested on: MCF7 (breast tumor) cells; assay: anti-proliferative assay (MTT, 48 h); format: cell-based, human; details: MCF7, 0.01 to 100 μM
Method: as §1, §2, §3, §4, §5

[3] = tested on: human colon adenocarcinoma (Caco-2); assay: MTT viability test, (S)-NAP 24 h; format: cell-based; details: Caco-2, NAP dosage 1.5-5.0 mM
Method: (§6) The effect of (S)-NAP on the viability of human colon adenocarcinoma cells with increasing degrees of malignancy was first evaluated. Caco2, HT-29, HCT-116 and a normal control cell MDCK, a […] kidney cell. Proliferation assays
(§7) (i) Cell cultures: Lineages of human colon adenocarcinoma cells with decreasing malignancy levels, HCT 116, HT-29 and Caco-2, were used. As a control of the epithelial cell model, a normal cell line of drainage epithelium (IEC-6) was used. These cells were cultured according to the ATCC specifications and maintained in a DMEM medium in an oven, with 5% CO2, at 37° C. until reaching semiconfluence.
(§8) (ii) Treatments: Initially, concentrations of sodium perylate (1.0, 1.8, 2.6, 3.4, 4.2 and 5.0 mM) were tested to determine the IC50 of the drug. Monolayers of semiconfluent cells were serum-depleted for 24 hours before treatment with (S)-NAP and during the treatment for 24 h.
(§9) (iii) Viability test: The lineages were plated in 96-well flat-bottom plates with DMEM culture medium containing the different (S)-NAP concentrations described above. Cell incubation with (S)-NAP was conducted for 24 h, at 37° C., upon which, the plates were incubated for 2 h with MTT [3-(4,5-dimethylthiazol-2-yl)-2,5diphenyltetrazolium bromide] 2.5 mg/ml, at a final concentration of 250 μg/ml. The plates were centrifuged at 1200 RPM, at 4° C., for 5 minutes, poured to remove the supernatant, since the crystals had deposited inside the cells. Formazan crystals were dissolved into […] of DMSO and homogenized manually and through the device. Absorbances were determined at 538 nm in a plate reader (Spectra Max 190). Controls of 100% viability, with no drug addition, and of 0% viability using formaldehyde were carried out simultaneously with the experiment.

[4] = tested on: human colon adenocarcinoma (HCT-116); assay: MTT viability test, (S)-NAP 24 h; format: cell-based; details: HCT-116, NAP dosage 1.0-5.0 mM
Method: as §6, §7, §8, §9

[5] = tested on: human colon adenocarcinoma (HT-29); assay: MTT viability test, (S)-NAP 24 h; format: cell-based; details: HT-29, NAP dosage 1.5-5.0 mM, concentration limited by NAP solubility
Method: as §6, §7, §8, §9

[6] = solubility in an aqueous medium; format: physicochemical; details: relative to POH and PA

SMILES | inhibition (in words) (SKMEL28 (melanoma) cells) | inhibition (in words) [2] | other results
C=C(C)C1CC=C(C(=O)[O-])CC1.[Na+] (stereo in doubt) [(R)-NAP, sodium perylate] | no inhibition making IC50 calculation necessary |  | IC50 (K562 (leukemia) cells): 1.24 µM; IC50 [1]: 0.013 µM
C=C(C)[C@H]1CC=C(C(=O)O)CC1 [(R)-PA, perillic acid] |  | no inhibition making IC50 calculation necessary | 
C=C(C)[C@@H]1CC=C(C(=O)[O-])CC1.[Na+] [(S)-NAP, sodium perylate] |  | no inhibition making IC50 calculation necessary | Result (viability) [3]: Refractory; IC50 [4]: > 3400 µM; IC50 [5]: > 5000 µM
C=C(C)[C@@H]1CC=C(C(=O)O)CC1 [(S)-PA, perillic acid, reference compound] | no inhibition making IC50 calculation necessary | no inhibition making IC50 calculation necessary | 
C=C(C)C1CC=C(C(=O)[O-])CC1.[Na+] (stereo not drawn) [NAP, sodium perylate] |  |  | solubility in an aqueous medium compared with POH and PA [6]: higher
C=C(C)[C@@H]1CC=C(CO)CC1 [POH, perillyl alcohol] |  | no inhibition making IC50 calculation necessary | 
